The test system of the assay is Human peripheral blood mononuclear cells (PBMC). The experiment in a line: TNFalfa-Release. It is filed as cell-based. The note with it: inhibition of TNF-a secretion, PBMC pre-incubated 30 minutes, stimulated 18 hours with lipopolysaccharide. The method, boiled down:
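Buffy-coat PBMC at 5×105 c/ml in RPMI1640 with 2% FCS were pre-incubated 30 min with compound, then stimulated 18 h with LPS 1 mg/ml. Supernatant TNF-a measured by enzyme immunoassay; pIC50 from inhibition curves relative to LPS-stimulated and unstimulated wells.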
One may read the IC50 as the concentration that inhibits the measured activity by half. Higher therefore signals a need for much substance. Take `COc1ccc(C(=O)Cc2c(Cl)cncc2Cl)c(OCC(=O)NCCCc2ccccc2)c1OC` [Compound 243, 2-{6-[2-(3,5-Dichloro-pyridin-4-yl)-acetyl]-2,3-dimethoxy-phenoxy}-N-(3-phenyl-propyl)-acetamide]: the IC50 is less than 1000 nM.

For `COc1ccc(C(=O)Cc2c(Cl)cncc2Cl)c(OCCCc2ccccc2)c1OC` [Compound 124, 2-(3,5-Dichloro-pyridin-4-yl)-1-[3,4-dimethoxy-2-(3-phenyl-propoxy)-phenyl]-ethanone], the IC50 is less than 1000 nM.

Consider `C=CCCOc1c(C(=O)Cc2c(Cl)cncc2Cl)ccc(OC)c1OC` [Compound 137, 1-(2-But-3-enyloxy-3,4-dimethoxy-phenyl)-2-(3,5-dichloro-pyridin-4-yl)-ethanone], for which the half-inhibitory concentration (IC50) is less than 1000 nM.

The molecule `CCCNC(=O)COc1c(C(=O)Cc2ccnc3ccccc23)ccc(OC)c1OC` [Compound 290] gave a half-inhibitory concentration (IC50) of less than 1000 nM.

Consider `COc1ccc(C(=O)Cc2c(Cl)cncc2Cl)c(OCc2cc(C)on2)c1OC` [Compound 108, 2-(3,5-Dichloro-pyridin-4-yl)-1-[3,4-dimethoxy-2-(5-methyl-isoxazol-3-ylmethoxy)-phenyl]-ethanone], for which the IC50 is less than 1000 nM.

On to `CCCNC(=O)COc1c(C(=O)Cc2c(Cl)cccc2Cl)ccc(OC)c1OC` [Compound 288, 2-{6-[2-(2,6-Dichloro-phenyl)-acetyl]-2,3-dimethoxy-phenoxy}-N-propyl-acetamide], for which the concentration for half-maximal inhibition (IC50) is less than 1000 nM.

`COc1ccc(C(=O)Cc2c(Cl)cncc2Cl)c(OCCc2ccc([S+](C)[O-])cc2)c1OC` (centres unmarked) [Compound 281, 2-(3,5-Dichloro-pyridin-4-yl)-1-{2-[2-(4-methanesulfinyl-phenyl)-ethoxy]-3,4-dimethoxy-phenyl}-ethanone] gave an IC50 of less than 1000 nM.

As for `COc1ccc(C(=O)Cc2c(Cl)cncc2Cl)c(OCC(=O)N[C@@H](C)c2ccccc2)c1OC` [Compound 226, (S)-2-(6-[2-(3,5-Dichloro-pyridin-4-yl)-acetyl]-2,3-dimethoxy-phenoxy)-N-(1-phenyl-ethyl)-acetamide], the half-maximal inhibitory concentration (IC50) was less than 1000 nM.

Molecule `COc1ccc(C(=O)Cc2c(Cl)cncc2Cl)c(OCC(=O)O)c1OC` [Compound 504, {6-[2-(3,5-Dichloro-pyridin-4-yl)-acetyl]-2,3-dimethoxy-phenoxy}-acetic acid] had an IC50 of less than 1000 nM.

Molecule `COc1ccc(C(=O)Cc2c(Cl)cncc2Cl)c(OCC(=O)NCCCOC(C)C)c1OC` [Compound 227, 2-{6-[2-(3,5-Dichloro-pyridin-4-yl)-acetyl]-2,3-dimethoxy-phenoxy}-N-(3-isopropoxy-propyl)-acetamide] showed an IC50 of less than 1000 nM.

Consider `COc1ccc(C(=O)Cc2c(Cl)cncc2Cl)c(OCC(=O)NCCCN2CCCC2=O)c1OC` [Compound 255, 2-{6-[2-(3,5-Dichloro-pyridin-4-yl)-acetyl]-2,3-dimethoxy-phenoxy}-N-[3-(2-oxo-pyrrolidin-1-yl)-propyl]-acetamide], for which the 50% inhibitory concentration (IC50) was less than 1000 nM.

Values taken from patent US8497380B2, “Substituted acetophenones useful as PDE4 inhibitors” (Leo Pharma A/S, priority 2006, dated 2013).
